Data published in patent US8143290B2, “Chemical compounds 572” (AstraZeneca AB, priority 2006, dated 2012).

Molecular target: T1, recombinant human GR (Homo sapiens, UniProt P04150)
T1 construct: purchased Panvera/Invitrogen P2812 (kit P2893)
T1 sequence (P04150 1-777): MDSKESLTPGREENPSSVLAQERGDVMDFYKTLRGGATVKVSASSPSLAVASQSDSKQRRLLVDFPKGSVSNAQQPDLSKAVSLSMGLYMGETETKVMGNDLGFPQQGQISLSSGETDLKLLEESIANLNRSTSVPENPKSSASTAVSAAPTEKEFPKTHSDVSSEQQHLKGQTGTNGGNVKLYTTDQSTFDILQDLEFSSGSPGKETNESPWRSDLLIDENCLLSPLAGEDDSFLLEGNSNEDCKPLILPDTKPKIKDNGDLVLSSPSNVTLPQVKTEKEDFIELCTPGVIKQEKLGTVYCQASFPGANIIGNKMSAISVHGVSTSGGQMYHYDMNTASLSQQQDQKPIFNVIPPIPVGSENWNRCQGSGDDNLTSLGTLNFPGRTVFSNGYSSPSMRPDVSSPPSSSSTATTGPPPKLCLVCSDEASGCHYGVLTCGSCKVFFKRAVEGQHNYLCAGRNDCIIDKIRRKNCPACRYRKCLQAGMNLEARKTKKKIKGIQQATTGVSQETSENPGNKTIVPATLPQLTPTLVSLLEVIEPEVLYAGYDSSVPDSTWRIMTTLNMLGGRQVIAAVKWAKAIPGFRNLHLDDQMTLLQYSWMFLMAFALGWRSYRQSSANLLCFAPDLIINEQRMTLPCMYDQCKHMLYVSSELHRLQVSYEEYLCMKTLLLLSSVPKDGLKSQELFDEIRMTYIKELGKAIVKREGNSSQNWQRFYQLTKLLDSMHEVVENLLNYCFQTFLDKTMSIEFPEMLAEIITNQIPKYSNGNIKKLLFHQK
Assay: Human Glucocorticoid Receptor (GR) Assay, fluorescence polarization
Format: binding
Settings: GS Red tracer, incubated 2 h at r.t., XLfit model 205, read-out: GRhuFL_FP_v2 Mean IC50
How it was run: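 After 2 h dark incubation at r.t., polarization reported displacement of the GS Red tracer from recombinant GR, in buffer with phosphate, molybdate, EDTA, DTT and Stabilizing Peptide. Controls: dexamethasone (100%) and DMSO (0%).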

Row | SMILES | IC50
1 | C[C@H](NC(=O)C(F)(F)F)[C@H](Oc1ccc2c(cnn2-c2ccc(F)cc2)c1)c1cccc(Cl)c1 [Example 155, N-[(1R,2S)-1-(3-chlorophenyl)-1-[1-(4-fluorophenyl)indazol-5-yl]oxy-propan-2-yl]-2,2,2-trifluoro-acetamide] | 5 nM
2 | Cc1cc(F)ccc1[C@@H](Oc1ccc2c(cnn2-c2ccc(F)cc2)c1)[C@H](C)NC(=O)C(F)(F)F [Example 156, 2,2,2-trifluoro-N-[(1R,2S)-1-(4-fluoro-2-methyl-phenyl)-1-[1-(4-fluorophenyl)indazol-5-yl]oxy-propan-2-yl]acetamide] | 4.2 nM
3 | Cc1ccc(F)cc1[C@@H](Oc1ccc2c(cnn2-c2ccc(F)cc2)c1)[C@H](C)NC(=O)C(F)(F)F [Example 157, 2,2,2-trifluoro-N-[(1R,2S)-1-(5-fluoro-2-methyl-phenyl)-1-[1-(4-fluorophenyl)indazol-5-yl]oxy-propan-2-yl]acetamide] | 5.3 nM
4 | COc1c(C)cc([C@@H](Oc2ccc3c(cnn3-c3ccc(F)cc3)c2)[C@H](C)NC(=O)C(F)(F)F)cc1C [Example 159, 2,2,2-trifluoro-N-[(1R,2S)-1-[1-(4-fluorophenyl)indazol-5-yl]oxy-1-(4-methoxy-3,5-dimethyl-phenyl)propan-2-yl]acetamide] | 4.2 nM
5 | C[C@H](NC(=O)C(F)(F)F)[C@H](Oc1ccc2c(cnn2-c2ccc(F)cc2)c1)c1ccc(Cl)cc1 [Example 160, N-[(1R,2S)-1-(4-chlorophenyl)-1-[1-(4-fluorophenyl)indazol-5-yl]oxy-propan-2-yl]-2,2,2-trifluoro-acetamide] | 4.1 nM
6 | C[C@H](NC(=O)C(F)(F)F)[C@H](Oc1ccc2c(cnn2-c2ccc(F)cc2)c1)c1cc(F)cc(Cl)c1 [Example 161, N-[(1R,2S)-1-(3-chloro-5-fluoro-phenyl)-1-[1-(4-fluorophenyl)indazol-5-yl]oxy-propan-2-yl]-2,2,2-trifluoro-acetamide] | 8.5 nM
7 | Cc1cc(C)c([C@@H](Oc2ccc3c(cnn3-c3ccc(F)cc3)c2)[C@H](C)NC(=O)C(F)(F)F)cc1C [Example 162, 2,2,2-trifluoro-N-[(1R,2S)-1-[1-(4-fluorophenyl)indazol-5-yl]oxy-1-(2,4,5-trimethylphenyl)propan-2-yl]acetamide] | 14 nM
8 | C[C@H](NC(=O)C(F)(F)F)[C@H](Oc1ccc2c(cnn2-c2ccc(F)cc2)c1)c1ccc(C(C)(C)C)cc1 [Example 163, 2,2,2-trifluoro-N-[(1R,2S)-1-[1-(4-fluorophenyl)indazol-5-yl]oxy-1-(4-tert-butylphenyl)propan-2-yl]acetamide] | 16 nM
9 | COc1ccccc1[C@@H](Oc1ccc2c(cnn2-c2ccc(F)cc2)c1)[C@H](C)NC(=O)C(F)(F)F [Example 164, 2,2,2-trifluoro-N-[(1R,2S)-1-[1-(4-fluorophenyl)indazol-5-yl]oxy-1-(2-methoxyphenyl)propan-2-yl]acetamide] | 4.2 nM
10 | CCCc1ccc([C@@H](Oc2ccc3c(cnn3-c3ccc(F)cc3)c2)[C@H](C)NC(=O)C(F)(F)F)cc1 [Example 165, 2,2,2-trifluoro-N-[(1R,2S)-1-[1-(4-fluorophenyl)indazol-5-yl]oxy-1-(4-propylphenyl)propan-2-yl]acetamide] | 6.4 nM
11 | C[C@H](NC(=O)C(F)(F)F)[C@H](Oc1ccc2c(cnn2-c2ccc(F)cc2)c1)c1ccc2c(c1)OCO2 [Example 166, N-[(1R,2S)-1-benzo[1,3]dioxol-5-yl-1-[1-(4-fluorophenyl)indazol-5-yl]oxy-propan-2-yl]-2,2,2-trifluoro-acetamide] | 6.9 nM
12 | Cc1c(F)cccc1[C@@H](Oc1ccc2c(cnn2-c2ccc(F)cc2)c1)[C@H](C)NC(=O)C(F)(F)F [Example 167, 2,2,2-trifluoro-N-[(1R,2S)-1-(3-fluoro-2-methyl-phenyl)-1-[1-(4-fluorophenyl)indazol-5-yl]oxy-propan-2-yl]acetamide] | 8.6 nM
13 | Cc1cc([C@@H](Oc2ccc3c(cnn3-c3ccc(F)cc3)c2)[C@H](C)NC(=O)C(F)(F)F)ccc1Cl [Example 168, N-[(1R,2S)-1-(4-chloro-3-methyl-phenyl)-1-[1-(4-fluorophenyl)indazol-5-yl]oxy-propan-2-yl]-2,2,2-trifluoro-acetamide] | 6.2 nM
14 | Cc1cc(Cl)ccc1[C@@H](Oc1ccc2c(cnn2-c2ccc(F)cc2)c1)[C@H](C)NC(=O)C(F)(F)F [Example 169, N-[(1R,2S)-1-(4-chloro-2-methyl-phenyl)-1-[1-(4-fluorophenyl)indazol-5-yl]oxy-propan-2-yl]-2,2,2-trifluoro-acetamide] | 8.1 nM
15 | C[C@H](NC(=O)C(F)(F)F)[C@H](Oc1ccc2c(cnn2-c2ccc(F)cc2)c1)c1ccc(Cl)c(F)c1 [Example 170, N-[(1R,2S)-1-(4-chloro-3-fluoro-phenyl)-1-[1-(4-fluorophenyl)indazol-5-yl]oxy-propan-2-yl]-2,2,2-trifluoro-acetamide] | 7.1 nM
16 | Cc1ccc([C@@H](Oc2ccc3c(cnn3-c3ccc(F)cc3)c2)[C@H](C)NC(=O)C(C)(C)C)cc1C [Example 171, N-[(1R,2S)-1-(3,4-dimethylphenyl)-1-[1-(4-fluorophenyl)indazol-5-yl]oxy-propan-2-yl]-2,2-dimethyl-propanamide] | 5.6 nM
17 | C[C@H](NC(=O)C(C)(C)C)[C@H](Oc1ccc2c(cnn2-c2ccc(F)cc2)c1)c1ccc(F)c(F)c1 [Example 172, N-[(1R,2S)-1-(3,4-difluorophenyl)-1-[1-(4-fluorophenyl)indazol-5-yl]oxy-propan-2-yl]-2,2-dimethyl-propanamide] | 4.3 nM
18 | Cc1ccc([C@@H](Oc2ccc3c(cnn3-c3ccc(F)cc3)c2)[C@H](C)NC(=O)C(C)(C)C)cc1F [Example 173, N-[(1R,2S)-1-(3-fluoro-4-methyl-phenyl)-1-[1-(4-fluorophenyl)indazol-5-yl]oxy-propan-2-yl]-2,2-dimethyl-propanamide] | 4.6 nM
19 | C[C@H](NC(=O)C(C)(C)C)[C@H](Oc1ccc2c(cnn2-c2ccc(F)cc2)c1)c1cccc(F)c1 [Example 174, N-[(1R,2S)-1-(3-fluorophenyl)-1-[1-(4-fluorophenyl)indazol-5-yl]oxy-propan-2-yl]-2,2-dimethyl-propanamide] | 4.1 nM
20 | Cc1ccc(C)c([C@@H](Oc2ccc3c(cnn3-c3ccc(F)cc3)c2)[C@H](C)NC(=O)C(C)(C)C)c1 [Example 175, N-[(1R,2S)-1-(2,5-dimethylphenyl)-1-[1-(4-fluorophenyl)indazol-5-yl]oxy-propan-2-yl]-2,2-dimethyl-propanamide] | 4.3 nM
21 | Cc1ccc([C@@H](Oc2ccc3c(cnn3-c3ccc(F)cc3)c2)[C@H](C)NC(=O)C(C)(C)C)c(C)c1 [Example 176, N-[(1R,2S)-1-(2,4-dimethylphenyl)-1-[1-(4-fluorophenyl)indazol-5-yl]oxy-propan-2-yl]-2,2-dimethyl-propanamide] | 4.9 nM
22 | COc1ccc([C@@H](Oc2ccc3c(cnn3-c3ccc(F)cc3)c2)[C@H](C)NC(=O)C(C)(C)C)cc1F [Example 177, N-[(1R,2S)-1-(3-fluoro-4-methoxy-phenyl)-1-[1-(4-fluorophenyl)indazol-5-yl]oxy-propan-2-yl]-2,2-dimethyl-propanamide] | 3.9 nM
23 | C[C@H](NC(=O)C(C)(C)C)[C@H](Oc1ccc2c(cnn2-c2ccc(F)cc2)c1)c1cccc(Cl)c1 [Example 178, N-[(1R,2S)-1-(3-chlorophenyl)-1-[1-(4-fluorophenyl)indazol-5-yl]oxy-propan-2-yl]-2,2-dimethyl-propanamide] | 3.9 nM
24 | Cc1cc(F)ccc1[C@@H](Oc1ccc2c(cnn2-c2ccc(F)cc2)c1)[C@H](C)NC(=O)C(C)(C)C [Example 179, N-[(1R,2S)-1-(4-fluoro-2-methyl-phenyl)-1-[1-(4-fluorophenyl)indazol-5-yl]oxy-propan-2-yl]-2,2-dimethyl-propanamide] | 3.7 nM
25 | Cc1ccc(F)cc1[C@@H](Oc1ccc2c(cnn2-c2ccc(F)cc2)c1)[C@H](C)NC(=O)C(C)(C)C [Example 180, N-[(1R,2S)-1-(5-fluoro-2-methyl-phenyl)-1-[1-(4-fluorophenyl)indazol-5-yl]oxy-propan-2-yl]-2,2-dimethyl-propanamide] | 6.8 nM
26 | COc1ccc(F)cc1[C@@H](Oc1ccc2c(cnn2-c2ccc(F)cc2)c1)[C@H](C)NC(=O)C(C)(C)C [Example 181, N-[(1R,2S)-1-(5-fluoro-2-methoxy-phenyl)-1-[1-(4-fluorophenyl)indazol-5-yl]oxy-propan-2-yl]-2,2-dimethyl-propanamide] | 3.2 nM
27 | COc1c(C)cc([C@@H](Oc2ccc3c(cnn3-c3ccc(F)cc3)c2)[C@H](C)NC(=O)C(C)(C)C)cc1C [Example 182, N-[(1R,2S)-1-[1-(4-fluorophenyl)indazol-5-yl]oxy-1-(4-methoxy-3,5-dimethyl-phenyl)propan-2-yl]-2,2-dimethyl-propanamide] | 5.5 nM
